How the values were obtained:
[1] = system: orthotopic ID8-fLuc (HRP) ovarian cancer tumors; assay: Overall survival of ovarian cancer bearing mice; assay type: in vivo
Protocol: (§1) Murine experiments were approved by the KU Leuven ethical committee (P082/2021). NIH guidelines for the Care and Use of Laboratory Animals were followed along with the 2010/62/EU directive and the ARRIVE (Animal Research: Reporting of In Vivo Research: Reporting of In Vivo Experiments) guidelines. Syngeneic ID8-fluc cells were harvested using 0.05% Trypsin-EDTA and inoculated (5×10^6 cells in 100 μL DPBS) intraperitoneally in female C57BL/6 mice (six- to eight-week-old, obtained from Envigo (Horst, The Netherlands)), leading to the development of a stage III-IV ovarian cancer model.
Seven days post inoculation, treatment was initiated. Mice were divided into four groups receiving either, sham-heat and vehicle (n=8), sham-heat and olaparib (n=8), TTFields and vehicle (n=7) or TTFields and olaparib (n=11). TTFields treatment (200 kHz) was administered continuously using the in vivo system (Novocure, Israel) by applying electrode arrays to the shaven abdomen of the mice as previously described. Sham-heat used analogous non-therapeutic arrays. Olaparib (MedKoo Biosciences, USA) was dissolved in a vehicle of 10% DMSO, 50% PEG300 and 40% DPBS and administered at a concentration of 50 mg/kg/day through daily oral gavage. Overall, therapeutic interventions lasted for four weeks, given in four cycles of five consecutive treatment days, followed by two days without treatment.
Mice were followed up and weighed daily once ascites development started as indicated by the appearance of abdominal distention. Mice were sacrificed when their body weight reached ≥32 grams as a surrogate endpoint for survival.

[2] = system: orthotopic ID8-fLuc (HRP) ovarian cancer tumors; assay: Tumor load by bioluminescent imaging in ovarian cancer bearing mice; assay type: in vivo
Protocol: as §1
Seven days post inoculation, treatment was initiated. Mice were divided into four groups receiving either, sham-heat and vehicle (n=8), sham-heat and olaparib (n=8), TTFields and vehicle (n=7) or TTFields and olaparib (n=11). TTFields treatment (200 kHz) was administered continuously using the in vivo system (Novocure, Israel) by applying electrode arrays to the shaven abdomen of the mice as previously described. […]
Tumor load was observed through bioluminescent imaging analysis before (day 5) and after (day 35) treatment administration. […] Ten minutes post injection, photon flux was measured using the IVIS-spectrum preclinical In Vivo Imaging System (Perkin-Elmer, USA). Normalized photon flux was calculated by subtracting the photon flux before treatment from the paired photon flux after treatment per mouse.

[3] = system: A2780cis cells; assay: Cell count and overall effect (cell count x colony formation) after 72 h drug with or without TTFields; assay type: cell-based, human
Protocol: (§2) TTFields were applied to the cells for 72 h in the absence or presence of various concentrations of carboplatin. Synergy was defined when the observed value was lower than that predicted for an additive effect (presented by the red dotted line-calculated by multiplying the observed effects for TTFields alone with that for cisplatin alone).
The Cytotoxic effect was also determined. Treated cells were counted using a flow cytometer, and cytotoxic effect was calculated relative to control cells.
Treated cells were harvested, re-plated, and grown for an additional 7-14 days. Colonies were stained (0.5% crystal violet solution), counted, and clonogenic effect was calculated relative to control. The overall effect was calculated by multiplying the cytotoxic and clonogenic effects.
TTFields application was studied. Ovarian carcinoma cells A2780cis (cisplatin resistant cells) were treated for 72 h with TTFields at an intensity of 1 V/cm RMS and a frequency of 200 kHz using the inovitro system (See FIG. 11).
as §2, with “PARPi Olaparib and Niraparib.” for “carboplatin.”
The cytotoxic effect was studied. Treated cells were counted using a flow cytometer, and cytotoxic effect was calculated relative to control cells.
Treated cells were harvested, re-plated, and grown for an additional 7-14 days. Colonies were stained (0.5% crystal violet solution), counted, and clonogenic effect was calculated relative to control. Overall effect was calculated by multiplying the cytotoxic and clonogenic effects.
Cells were seeded on coverslip (22 mm diameter; 20×10^3 cells/coverslip for A2780 and A2780cis; 40×10^3 cells/coverslip for OVCAR-3). After overnight incubation, the coverslips were transferred into in vitro dishes containing 2 ml of media. TTFields at a frequency of 200 kHz (and intensity of 1 V/cm RMS) were applied to the cells for 72 hr using the INOVITRO system (Novocure, Haifa, Israel).
For efficacy outcomes (cell count, overall effect, and apoptosis), various concentrations of carboplatin (MCE MedChemExpress, HY-17393), olaparib (Cayman Chemical, 10621), or niraparib (Cayman Chemical, 20842) were applied, with or without TTFields.
Cell count was examined following treatment using Cytek Northern Lights flow cytometer (Cytek Biosciences, USA).
Treated cells were harvested, re-plated in 6-well plates (500 cells/well for A2780 and A2780cis; 1000 for cells/well OVCAR-3), and grown for 7 (A2780 and A2780cis) or 21 (OVCAR-3) days. Colonies were stained with 0.5% crystal violet, quantified with ImageJ, and expressed as percentages relative to control. Overall effect was calculated by multiplying colony formation with the corresponding cell count.
The surviving fraction predicted for an additive effect between TTFields and drug was calculated per the various drug concentrations by multiplying the actual measured surviving fractions for the individual treatments one by the other (SFcalculated additive=SFTTFields×SFdrug; SF are expressed as probability). Based on the calculated values, a trendline was determined. Additivity, synergy, or antagonism was defined when the calculated additive trendline overlapped, was above, or was below the actual measured line for TTFields+drug, respectively.
For quantifying the magnitude of TTFields-drug interaction, interaction index (Ii) values were calculated by the Bliss independence method using mortality values (Mx=1−SFx). Per the various drug concentrations, mortality predicted for an additive effect between TTFields and drug (Mcalculated additive=MTTFields+Mdrug−MTTFields×Mdrug) was divided by the actual measured mortality for TTFields+drug.

`O=C(c1cc(Cc2n[nH]c(=O)c3ccccc23)ccc1F)N1CCN(C(=O)C2CC2)CC1` [olaparib] was tested, and the “median overall survival, TTFields plus olaparib” value ([1]; TTFields (200 kHz) plus olaparib 50 mg/kg/day, control 62 days) was 70 days, the “median overall survival, monotherapy” value ([1]; monotherapy, control 62 days) was 64.5 days and the “survival compared to control mice, monotherapy” value ([1]; olaparib only, p=0.0401) was “survival benefit”. The “survival, TTFields plus olaparib compared to control and monotherapies” value ([1]; p=0.0003 vs control, p=0.0003 vs olaparib, p=0.0130 vs TTFields) was “significantly prolonged”, the “tumor volumes lower compared to controls and to olaparib only treated mice” value ([2]; TTFields (200 kHz) plus olaparib 50 mg/kg/day oral gavage, after 4 weeks, p=0.0183 vs controls, p=0.0066 vs olaparib only) was “about 80%” and the “tumor growth relative to olaparib alone and to control, TTFields and olaparib together” value ([2]; TTFields plus olaparib 50 mg/kg/day) was “significant reduction”. The “effect of TTFields on the drug-induced overall effect (cell count x colony formation)” value ([3]; TTFields plus drug vs drug alone) was “significantly augmented”, the “effect of TTFields on the drug-induced effect, cell count” value ([3]; TTFields plus drug vs drug alone, p<0.0001) was “significantly augmented” and the “sensitivity to drug (cell count dose response)” value ([3]; drug alone, 72 h, compared among A2780, OVCAR-3, A2780cis) was “highest resistance”. The “type of TTFields-drug interaction (measured vs calculated additive curve)” value ([3]; platinum-resistant cells, TTFields 200 kHz, 1 V/cm RMS, 72 h) was “tendency to synergy”.

From patent US20250108213A1, “COMPOSITIONS AND METHODS FOR ENHANCING THE EFFECT OF PLATINUM-BASED SYSTEMIC THERAPY” (NOVOCURE GMBH, priority 2023, published 2025)
